In patent US8846933B2, “N-link hydroxamic acid derivatives useful as antibacterial agents” (Pfizer Inc., priority 2009, dated 2014):

Experiments:
[1] = test system: Escherichia coli EC-1: VOGEL, mouse virulent; assay: MIC determination (CLSI), strain EC-1; format: cell-based; conditions: strain EC-1, unit assumed
Protocol: (§1) The in vitro antibacterial activity of compounds described in the Examples was evaluated by minimum inhibitory concentration (MIC) testing according to Clinical and Laboratory Standards Institute (CLSI, formerly NCCLS) guidelines. See: Clinical and Laboratory Standards Institute. Methods for Dilution Antimicrobial Susceptibility Tests for Bacteria that Grow Aerobically; Approved Standard-Seventh Edition. CLSI document M7-A7 [ISBN 1-56238-587-9]. Clinical and Laboratory Standards Institute, 940 West Valley Road, Suite 1400, Wayne, Pa. 19087-1898 USA, 2006; also Clinical and Laboratory Standards Institute. Performance Standards for Antimicrobial Susceptibility Testing; Eighteenth Informational Supplement. CLSI document M100-S18 [ISBN1-56238-653-0].Clinical and Laboratory Standards Institute.
(§2) The following bacterial strains were used in these MIC determinations:
3) Escherichia coli EC-1: VOGEL, mouse virulent labeled as EC-1 in Tables 4 and 5;

[2] = test system: Pseudomonas aeruginosa UI-18: Wild-type (PA-7); assay: MIC determination (CLSI), strain PA-7; format: cell-based; conditions: strain PA-7, unit assumed
Protocol: as §1, §2
1) Pseudomonas aeruginosa UI-18: Wild-type, labeled as PA-7 in Tables 4, and 5;

[3] = generated in the same manner as in Table 4

C[C@@](CCn1ccc(-c2ccc(-c3cnoc3)cc2)cc1=O)(C(=O)NO)S(C)(=O)=O [Example 454, (2R)-N-hydroxy-4-[4-(4-isoxazol-4-ylphenyl)-2-oxopyridin-1(2H)-yl]-2-methyl-2-(methylsulfonyl)butanamide]
EC-1 (MIC) [1]: 2 µg/mL | PA-7 (MIC) [2]: 4 µg/mL

CC(CCn1ccc(-c2ccc3cc(CO)ccc3c2)cc1=O)(C(=O)NO)S(C)(=O)=O (stereo not drawn) [Example 309, N-hydroxy-4-{4-[6-(hydroxymethyl)-2-naphthyl]-2-oxopyridin-1(2H)-yl}-2-methyl-2-(methylsulfonyl)butanamide]
EC-1 (MIC) [1]: 1 µg/mL | PA-7 (MIC) [2]: 4 µg/mL

CC(CCn1ccc(-c2ccc(OCCCN3CCOCC3)cc2Cl)cc1=O)(C(=O)NO)S(C)(=O)=O (stereo not drawn) [Example 225, 4-{4-[2-chloro-4-(3-morpholin-4-ylpropoxy)phenyl]-2-oxopyridin-1(2H)-yl}-N-hydroxy-2-methyl-2-(methylsulfonyl)butanamide]
EC-1 (MIC) [1]: 8 µg/mL | PA-7 (MIC) [2]: 16 µg/mL

C[C@@](CCn1ccc(-c2ccc(-c3ccncn3)cc2)cc1=O)(C(=O)NO)S(C)(=O)=O [Example 400, (2R)-N-hydroxy-2-methyl-2-(methylsulfonyl)-4-[2-oxo-4-(4-pyrimidin-4-ylphenyl)pyridin-1(2H)-yl]butanamide]
EC-1 (MIC) [1]: 1 µg/mL | PA-7 (MIC) [2]: 2 µg/mL

Cc1cc(OCCCCO)ccc1-c1ccn(CCC(C)(C(=O)NO)S(C)(=O)=O)c(=O)c1 (stereo not drawn) [Example 243, N-hydroxy-4-{4-[4-(4-hydroxybutoxy)-2-methylphenyl]-2-oxopyridin-1(2H)-yl}-2-methyl-2-(methylsulfonyl)butanamide]
EC-1 (MIC) [1]: 4 µg/mL | PA-7 (MIC) [2]: 8 µg/mL

Cc1cnn(-c2ccc(-c3ccn(CCC(C)(C(=O)NO)S(C)(=O)=O)c(=O)c3)cc2)n1 (stereo not drawn) [Example 455]
EC-1 (MIC) [1]: 0.06 µg/mL | PA-7 (MIC) [2]: 1 µg/mL

C[C@@](CCn1ccc(-c2c(F)cccc2F)cc1=O)(C(=O)NO)S(C)(=O)=O [Example 353]
EC-1 (MIC) [1]: 4 µg/mL | PA-7 (MIC) [2]: 1 µg/mL

Cc1ccc(-c2ccc(-c3ccn(CC[C@](C)(C(=O)NO)S(C)(=O)=O)c(=O)c3)cc2)cn1 [Example 456, (2R)-N-hydroxy-2-methyl-4-{4-[4-(6-methylpyridin-3-yl)phenyl]-2-oxopyridin-1(2H)-yl}-2-(methylsulfonyl)butanamide]
EC-1 (MIC) [1]: 0.25 µg/mL | PA-7 (MIC) [2]: 1 µg/mL

Cc1cc(-c2ccn(CCC(C)(C(=O)NO)S(C)(=O)=O)c(=O)c2)c(C)cc1OCCO (stereo not drawn) [Example 233, N-hydroxy-4-{4-[4-(2-hydroxyethoxy)-2,5-dimethylphenyl]-2-oxopyridin-1(2H)-yl}-2-methyl-2-(methylsulfonyl)butanamide]
EC-1 (MIC) [1]: > 64 µg/mL | PA-7 (MIC) [2]: > 64 µg/mL

Cc1nnnn1-c1ccc(-c2ccn(CC[C@](C)(C(=O)NO)S(C)(=O)=O)c(=O)c2)cc1 [Example 378, (2R)-N-hydroxy-2-methyl-2-(methylsulfonyl)-4-{4-[4-(5-methyl-1H-tetrazol-1-yl)phenyl]-2-oxopyridin-1(2H)-yl}butanamide]
EC-1 (MIC) [1]: 32 µg/mL | PA-7 (MIC) [2]: 64 µg/mL

CCCn1cc(-c2ccn(CCC(C)(C(=O)NO)S(C)(=O)=O)c(=O)c2)cn1 (stereo not drawn) [Example 152, N-hydroxy-2-methyl-2-(methylsulfonyl)-4-[2-oxo-4-(1-propyl-1H-pyrazol-4-yl)pyridin-1(2H)-yl]butanamide]
EC-1 (MIC) [1, 3]: > 64 µg/mL | PA-7 (MIC) [2, 3]: > 64 µg/mL

COc1ccccc1-c1ccn(CCC(C)(C(=O)NO)S(C)(=O)=O)c(=O)c1 (stereo not drawn) [Example 120, N-hydroxy-4-[4-(2-methoxyphenyl)-2-oxopyridin-1(2H)-yl]-2-methyl-2-(methylsulfonyl)butanamide]
EC-1 (MIC) [1, 3]: 64 µg/mL | PA-7 (MIC) [2, 3]: 16 µg/mL

CC(CCn1ccc(-c2ccc(OCC3CCCO3)cc2)cc1=O)(C(=O)NO)S(C)(=O)=O (mixture of isomers) [Example 462]
EC-1 (MIC) [1]: 0.5 µg/mL | PA-7 (MIC) [2]: 1 µg/mL

Cc1cn(CCC(C)(C(=O)NO)S(C)(=O)=O)c(=O)cc1-c1ccccc1 (stereo not drawn) [Example 284, N-hydroxy-2-methyl-4-(5-methyl-2-oxo-4-phenylpyridin-1(2H)-yl)-2-(methylsulfonyl)butanamide]
EC-1 (MIC) [1]: 32 µg/mL | PA-7 (MIC) [2]: 64 µg/mL

Cn1nnc(-c2ccc(-c3ccn(CC[C@](C)(C(=O)NO)S(C)(=O)=O)c(=O)c3)cc2)n1 [Example 376]
EC-1 (MIC) [1]: 0.5 µg/mL | PA-7 (MIC) [2]: 2 µg/mL

CC(CCn1ccc(-c2ccc(Br)c(F)c2)cc1=O)(C(=O)NO)S(C)(=O)=O (stereo not drawn) [Example 282, 4-[4-(4-bromo-3-fluorophenyl)-2-oxopyridin-1(2H)-yl]-N-hydroxy-2-methyl-2-(methylsulfonyl)butanamide]
EC-1 (MIC) [1]: 0.5 µg/mL | PA-7 (MIC) [2]: 1 µg/mL

C[C@@](CCn1ccc(-c2ccc(-c3ncns3)cc2)cc1=O)(C(=O)NO)S(C)(=O)=O [Example 419, (2R)-N-hydroxy-2-methyl-2-(methylsulfonyl)-4-{2-oxo-4-[4-(1,2,4-thiadiazol-5-yl)phenyl]pyridin-1(2H)-yl}butanamide]
EC-1 (MIC) [1]: 0.25 µg/mL | PA-7 (MIC) [2]: 1 µg/mL

CC(CCn1ccc(-c2ccc(OCCCn3cncn3)cc2)cc1=O)(C(=O)NO)S(C)(=O)=O (stereo not drawn) [Example 92, N-hydroxy-2-methyl-2-(methylsulfonyl)-4-[2-oxo-4-{4-[3-(1H-1,2,4-triazol-1-yl)propoxy]phenyl}pyridin-1(2H)-yl]butanamide]
EC-1 (MIC) [1, 3]: 8 µg/mL | PA-7 (MIC) [2, 3]: 16 µg/mL

Cc1cc(OCCCn2cncn2)ccc1-c1ccn(CCC(C)(C(=O)NO)S(C)(=O)=O)c(=O)c1 (stereo not drawn) [Example 289, N-hydroxy-2-methyl-2-(methylsulfonyl)-4-[4-{2-methyl-4-[3-(1H-1,2,4-triazol-1-yl)propoxy]phenyl}-2-oxopyridin-1(2H)-yl]butanamide]
EC-1 (MIC) [1]: 32 µg/mL | PA-7 (MIC) [2]: 32 µg/mL

CCCCc1ccc(-c2ccn(CCC(C)(C(=O)NO)S(C)(=O)=O)c(=O)c2)cc1 (stereo not drawn) [Example 199, 4-[4-(4-butylphenyl)-2-oxopyridin-1(2H)-yl]-N-hydroxy-2-methyl-2-(methylsulfonyl)butanamide]
EC-1 (MIC) [1]: 0.125 µg/mL | PA-7 (MIC) [2]: 2 µg/mL

COc1cnc(-c2ccc(-c3ccn(CC[C@](C)(C(=O)NO)S(C)(=O)=O)c(=O)c3)cc2)nc1 [Example 387, (2R)-N-hydroxy-4-{4-[4-(5-methoxypyrimidin-2-yl)phenyl]-2-oxopyridin-1(2H)-yl}-2-methyl-2-(methylsulfonyl)butanamide]
EC-1 (MIC) [1]: 0.06 µg/mL | PA-7 (MIC) [2]: 0.5 µg/mL

Cc1cc(OCCCO)ccc1-c1ccn(CCC(C)(C(=O)NO)S(C)(=O)=O)c(=O)c1 (stereo not drawn) [Example 252, N-hydroxy-4-{4-[4-(3-hydroxypropoxy)-2-methylphenyl]-2-oxopyridin-1(2H)-yl}-2-methyl-2-(methylsulfonyl)butanamide]
EC-1 (MIC) [1]: 16 µg/mL | PA-7 (MIC) [2]: 16 µg/mL

Cc1cccc(-c2ccc(-c3ccn(CC[C@](C)(C(=O)NO)S(C)(=O)=O)c(=O)c3)cc2)n1 [Example 422, (2R)-N-hydroxy-2-methyl-4-{4-[4-(6-methylpyridin-2-yl)phenyl]-2-oxopyridin-1(2H)-yl}-2-(methylsulfonyl)butanamide]
EC-1 (MIC) [1]: 0.5 µg/mL | PA-7 (MIC) [2]: 4 µg/mL

C[C@@](CCn1ccc(-c2cc(F)cc(Cl)c2Cl)cc1=O)(C(=O)NO)S(C)(=O)=O [Example 451, (2R)-4-[4-(2,3-dichloro-5-fluorophenyl)-2-oxopyridin-1(2H)-yl]-N-hydroxy-2-methyl-2-(methylsulfonyl)butanamide]
EC-1 (MIC) [1]: 4 µg/mL | PA-7 (MIC) [2]: 4 µg/mL
